Columns and labels:
[1] = system: blackgrass; assay: Test B pre/postemergence blackgrass; format: in vivo, Alopecurus myosuroides
Method in brief: (§1)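 Test chemicals in a non-phytotoxic solvent mixture with surfactant were sprayed preemergence onto planted seeds and postemergence onto plants 2 to 18 cm tall (1- to 4-leaf stage). After twelve to sixteen days in a greenhouse, injury was visually rated against untreated controls from 0 (no effect) to 10 (complete control).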

[2] = system: surinam grass; assay: Test B pre/postemergence surinam grass; format: in vivo, Brachiaria decumbens
Method in brief: as §1

[3] = system: cocklebur; assay: Test B pre/postemergence cocklebur; format: in vivo, Xanthium strumarium
Method in brief: as §1

[4] = system: corn; assay: Test B pre/postemergence corn; format: in vivo, Zea mays
Method in brief: as §1

[5] = system: crabgrass; assay: Test B pre/postemergence crabgrass; format: in vivo, Digitaria sanguinalis
Method in brief: as §1

[6] = system: giant foxtail; assay: Test B pre/postemergence giant foxtail; format: in vivo, Setaria faberii
Method in brief: as §1

[7] = system: morningglory; assay: Test B pre/postemergence morningglory; format: in vivo, Ipomoea hederacea
Method in brief: as §1

[8] = system: pigweed; assay: Test B pre/postemergence pigweed; format: in vivo, Amaranthus retroflexus
Method in brief: as §1

[9] = system: rape; assay: Test B pre/postemergence rape; format: in vivo, Brassica napus
Method in brief: as §1

[10] = system: soybean; assay: Test B pre/postemergence soybean; format: in vivo, Glycine max
Method in brief: as §1

[11] = system: sugar beet; assay: Test B pre/postemergence sugar beet; format: in vivo, Beta vulgaris
Method in brief: as §1

[12] = system: velvetleaf; assay: Test B pre/postemergence velvetleaf; format: in vivo, Abutilon theophrasti
Method in brief: as §1

[13] = system: wild oat; assay: Test B pre/postemergence wild oat; format: in vivo, Avena fatua
Method in brief: as §1

[14] = system: purple nutsedge; assay: Test B pre/postemergence purple nutsedge; format: in vivo, Cyperus rotundus
Method in brief: as §1

[15] = system: smallflower flatsedge; assay: Test B flood test smallflower flatsedge; format: in vivo, Cyperus difformis
Method in brief: (§2)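 Flood test on plants grown to the 2-leaf stage; treated plants kept in greenhouse twelve to sixteen days, then visually rated against controls on a 0 (no effect) to 10 (complete control) scale.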

[16] = system: bamyardgrass; assay: Test B flood test barnyardgrass; format: in vivo, Echinochloa crus-galli
Method in brief: as §2

[17] = Preemergence, Rate 62 g/ha, scale of 0 to 10 where 0 is no effect and 10 is complete control
[18] = Preemergence, Rate 500 g/ha, scale of 0 to 10 where 0 is no effect and 10 is complete control
[19] = Rate 62 g/ha, Postemergence, scale of 0 to 10 where 0 is no effect and 10 is complete control
[20] = Rate 125 g/ha, Postemergence, scale 0 to 10
[21] = Rate 125 g/ha, Preemergence, scale of 0 to 10 where 0 is no effect and 10 is complete control
[22] = Rate 500 g/ha, Postemergence, scale 0 to 10
[23] = Preemergence, Rate 250 g/ha, scale of 0 to 10 where 0 is no effect and 10 is complete control
[24] = Rate 62 g/ha, headed Pre-emergence (flood test species), scale 0 to 10 (0 no effect, 10 complete control)
[25] = Rate 125 g/ha, Pre-emergence, flood test species, scale 0 to 10 where 0 is no effect and 10 is complete control
[26] = Rate 250 g/ha, Pre-emergence, flood-test species, scale 0 to 10, 0 is no effect, 10 is complete control
[27] = Rate 500 g/ha, Pre-emergence, flood test species, scale 0 to 10 (0 no effect, 10 complete control)

COC(=O)Cn1c(=O)on(C(=O)N(c2ccc(F)cc2)C(C)C)c1=O [Compound 215]
1: Soybean plant response rating [10, 20] | Plant response rating (0 to 10; 0 is no effect, 10 is complete control), Soybean ([10]; Rate 250 g/ha, Postemergence) | Soybean plant response rating [10, 22]
7: Plant response rating, Sugarbeets [11, 18]
2: B. signalgrass plant response rating ([2]; Preemergence, Rate 250 g/ha, scale 0 to 10, 0 is no effect, 10 is complete control) | Plant response rating, B. signalgrass [2, 18] | Plant response rating, Corn [4, 18] | Plant response rating (0 to 10; 0 is no effect, 10 is complete control), Crabgrass ([5]; Rate 250 g/ha, Postemergence) | Crabgrass plant response rating [5, 22] | Morningglory plant response rating [7, 20] | Plant response rating, Rape [9, 18] | Sugarbeets plant response rating [11, 23] | Sugarbeets plant response rating [11, 21] | Wild oats plant response rating [13, 23] | Plant response rating, Wild oats [13, 18] | Plant response rating (0 to 10; 0 is no effect, 10 is complete control), Wild oats ([13]; Rate 250 g/ha, Postemergence)
6: Plant response rating, Blackgrass [1, 18] | Blackgrass plant response rating [1, 21] | Plant response rating, Redroot pigweed [8, 18] | Plant response rating (0 to 10; 0 is no effect, 10 is complete control), Redroot pigweed ([8]; Rate 250 g/ha, Postemergence) | Redroot pigweed plant response rating [8, 22]
4: Blackgrass plant response rating [1, 17] | Plant response rating (0 to 10; 0 is no effect, 10 is complete control), Blackgrass ([1]; Rate 250 g/ha, Postemergence) | Crabgrass plant response rating [5, 23] | Plant response rating, Crabgrass [5, 18] | Crabgrass plant response rating [5, 21] | Redroot pigweed plant response rating [8, 17] | Redroot pigweed plant response rating [8, 21]
3: Plant response rating (0 to 10; 0 is no effect, 10 is complete control), B. signalgrass ([2]; Rate 250 g/ha, Postemergence) | B. signalgrass plant response rating ([2]; Rate 500 g/ha, Postemergence, scale 0 to 10, 0 no effect, 10 complete control) | Crabgrass plant response rating [5, 17] | Giant foxtail plant response rating [6, 17] | Giant foxtail plant response rating [6, 23] | Giant foxtail plant response rating [6, 21] | Plant response rating (0 to 10; 0 is no effect, 10 is complete control), Giant foxtail ([6]; Rate 250 g/ha, Postemergence) | Plant response rating (0 to 10; 0 is no effect, 10 is complete control), Morningglory ([7]; Rate 250 g/ha, Postemergence) | Morningglory plant response rating [7, 22]
5: Blackgrass plant response rating [1, 22] | Plant response rating, Giant foxtail [6, 18] | Giant foxtail plant response rating [6, 22] | Redroot pigweed plant response rating [8, 23]
0: Blackgrass plant response rating [1, 19] | Blackgrass plant response rating [1, 20] | B. signalgrass plant response rating [2, 17] | B. signalgrass plant response rating [2, 19] | B. signalgrass plant response rating ([2]; Rate 125 g/ha, Postemergence, scale 0 (no effect) to 10 (complete control)) | B. signalgrass plant response rating [2, 21] | Cocklebur plant response rating [3, 17] | Cocklebur plant response rating [3, 23] | Plant response rating, Cocklebur [3, 18] | Cocklebur plant response rating [3, 19] | Cocklebur plant response rating [3, 20] | Cocklebur plant response rating [3, 21] | Plant response rating (0 to 10; 0 is no effect, 10 is complete control), Cocklebur ([3]; Rate 250 g/ha, Postemergence) | Cocklebur plant response rating [3, 22] | Corn plant response rating [4, 17] | Corn plant response rating [4, 23] | Corn plant response rating [4, 19] | Corn plant response rating [4, 20] | Corn plant response rating [4, 21] | Plant response rating (0 to 10; 0 is no effect, 10 is complete control), Corn ([4]; Rate 250 g/ha, Postemergence) | Corn plant response rating [4, 22] | Crabgrass plant response rating [5, 19] | Crabgrass plant response rating [5, 20] | Giant foxtail plant response rating [6, 19] | Giant foxtail plant response rating [6, 20] | Morningglory plant response rating [7, 17] | Morningglory plant response rating [7, 23] | Plant response rating, Morningglory [7, 18] | Morningglory plant response rating [7, 19] | Morningglory plant response rating [7, 21] | Redroot pigweed plant response rating [8, 19] | Redroot pigweed plant response rating [8, 20] | Rape plant response rating [9, 17] | Rape plant response rating [9, 23] | Rape plant response rating [9, 19] | Rape plant response rating [9, 20] | Rape plant response rating [9, 21] | Plant response rating (0 to 10; 0 is no effect, 10 is complete control), Rape ([9]; Rate 250 g/ha, Postemergence) | Rape plant response rating [9, 22] | Soybean plant response rating [10, 17] | Soybean plant response rating [10, 23] | Plant response rating, Soybean [10, 18] | Soybean plant response rating [10, 19] | Soybean plant response rating [10, 21] | Sugarbeets plant response rating [11, 17] | Sugarbeets plant response rating [11, 19] | Sugarbeets plant response rating [11, 20] | Plant response rating (0 to 10; 0 is no effect, 10 is complete control), Sugarbeets ([11]; Rate 250 g/ha, Postemergence) | Sugarbeets plant response rating [11, 22] | Velvetleaf plant response rating [12, 17] | Velvetleaf plant response rating [12, 23] | Plant response rating, Velvetleaf [12, 18] | Velvetleaf plant response rating [12, 19] | Velvetleaf plant response rating [12, 20] | Velvetleaf plant response rating [12, 21] | Plant response rating (0 to 10; 0 is no effect, 10 is complete control), Velvetleaf ([12]; Rate 250 g/ha, Postemergence) | Wild oats plant response rating [13, 17] | Wild oats plant response rating [13, 19] | Wild oats plant response rating [13, 20] | Wild oats plant response rating [13, 21] | Nutsedge plant response rating [14, 17] | Nutsedge plant response rating [14, 23] | Plant response rating, Nutsedge [14, 18] | Nutsedge plant response rating [14, 19] | Nutsedge plant response rating [14, 20] | Nutsedge plant response rating [14, 21] | Plant response rating (0 to 10; 0 is no effect, 10 is complete control), Nutsedge ([14]; Rate 250 g/ha, Postemergence) | Nutsedge plant response rating [14, 22] | S. Flatsedge plant response rating [15, 24] | S. Flatsedge plant response rating [15, 25] | S. Flatsedge plant response rating [15, 26] | S. Flatsedge plant response rating [15, 27] | Barnyardgrass plant response rating [16, 24] | Barnyardgrass plant response rating [16, 25] | Barnyardgrass plant response rating [16, 26] | Barnyardgrass plant response rating [16, 27]
